Test results taken from the supplement of paper PMC10307832.

What was measured:
Assay in all cases: relative viability (nuclei count vs DMSO), 5 days (fraction); higher = more cells survive
[1] = system: EPLC-272H
Procedure, shortened: (§1)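 Cells from lung cancer lines were seeded into 1536-well plates and, one day later, dosed by pin tool. Treatments were either a single drug or a fixed dose of an anchor drug with five library-drug doses (not always all listed) in √10 steps. After 5 days, nuclei were stained in a one-step fixation (final 0.05% Triton X-100, 1% formaldehyde, 1 ug/ml Hoechst) and counted on 4× images, and relative viability is the treated-to-vehicle nuclei ratio, as the median of duplicate plates.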

[2] = system: PC-14
Procedure, shortened: as §1

[3] = system: HOP-62
Procedure, shortened: as §1

[4] = system: NCI-H1915
Procedure, shortened: as §1

[5] = system: NCI-H2347
Procedure, shortened: as §1

[6] = system: NCI-H1355
Procedure, shortened: as §1

[7] = system: LU99A
Procedure, shortened: as §1

[8] = system: LC-2-ad
Procedure, shortened: as §1

[9] = system: UMC-11
Procedure, shortened: as §1

[10] = system: NCI-H2085
Procedure, shortened: as §1

[11] = system: NCI-H1651
Procedure, shortened: as §1

[12] = system: NCI-H1993
Procedure, shortened: as §1

[13] = system: HARA
Procedure, shortened: as §1

[14] = system: COR-L23
Procedure, shortened: as §1

[15] = system: NCI-H838
Procedure, shortened: as §1

[16] = system: HCC-44
Procedure, shortened: as §1

[17] = system: SW 1573
Procedure, shortened: as §1

[18] = system: HCC-15
Procedure, shortened: as §1

[19] = system: NCI-H2023
Procedure, shortened: as §1

[20] = system: NCI-H2126
Procedure, shortened: as §1

## COc1nc(C)cnc1NS(=O)(=O)c1cccnc1-c1ccc(-c2nnco2)cc1 [Zibotentan] + CC1(C)CCC(c2ccc(Cl)cc2)=C(CN2CCN(c3ccc(C(=O)NS(=O)(=O)c4ccc(N[C@H](CCN5CCOCC5)CSc5ccccc5)c(S(=O)(=O)C(F)(F)F)c4)cc3)CC2)C1 [Navitoclax] (partner 0.5 µM)
[1]; first compound 0.08 µM
  relative viability: 1.09
[1]; first compound 0.253 µM
  relative viability: 1.1
[1]; first compound 0.8 µM
  relative viability: 1.16
[1]; first compound 2.53 µM
  relative viability: 1.4
[2]; first compound 0.08 µM
  relative viability: 1.01
[2]; first compound 0.253 µM
  relative viability: 0.983
[2]; first compound 0.8 µM
  relative viability: 0.987
[2]; first compound 2.53 µM
  relative viability: 1.03
[3]; first compound 0.08 µM
  relative viability: 1.06
[3]; first compound 0.253 µM
  relative viability: 1.08
[3]; first compound 0.8 µM
  relative viability: 0.99
[3]; first compound 2.53 µM
  relative viability: 1
[4]; first compound 0.08 µM
  relative viability: 0.732
[4]; first compound 0.253 µM
  relative viability: 0.79
[4]; first compound 0.8 µM
  relative viability: 0.805
[4]; first compound 2.53 µM
  relative viability: 0.797
[5]; first compound 0.08 µM
  relative viability: 0.746
[5]; first compound 0.253 µM
  relative viability: 0.776
[5]; first compound 0.8 µM
  relative viability: 0.741
[5]; first compound 2.53 µM
  relative viability: 0.77
[6]; first compound 0.08 µM
  relative viability: 0.991
[6]; first compound 0.253 µM
  relative viability: 0.968
[6]; first compound 0.8 µM
  relative viability: 0.928
[6]; first compound 2.53 µM
  relative viability: 1.1
[7]; first compound 0.08 µM
  relative viability: 0.753
[7]; first compound 0.253 µM
  relative viability: 0.768
[7]; first compound 0.8 µM
  relative viability: 0.791
[7]; first compound 2.53 µM
  relative viability: 0.869
[8]; first compound 0.08 µM
  relative viability: 0.36
[8]; first compound 0.253 µM
  relative viability: 0.386
[8]; first compound 0.8 µM
  relative viability: 0.533
[8]; first compound 2.53 µM
  relative viability: 0.516
[9]; first compound 0.08 µM
  relative viability: 0.303
[9]; first compound 0.253 µM
  relative viability: 0.32
[9]; first compound 0.8 µM
  relative viability: 0.293
[9]; first compound 2.53 µM
  relative viability: 0.302
[10]; first compound 0.08 µM
  relative viability: 1.23
[10]; first compound 0.253 µM
  relative viability: 1.08
[10]; first compound 0.8 µM
  relative viability: 1.28
[10]; first compound 2.53 µM
  relative viability: 1.27
[11]; first compound 0.08 µM
  relative viability: 1.08
[11]; first compound 0.253 µM
  relative viability: 0.875
[11]; first compound 0.8 µM
  relative viability: 1
[11]; first compound 2.53 µM
  relative viability: 1.11
[12]; first compound 0.253 µM
  relative viability: 0.955
[12]; first compound 0.8 µM
  relative viability: 0.813
[12]; first compound 2.53 µM
  relative viability: 0.956
[13]; first compound 0.08 µM
  relative viability: 1.2
[13]; first compound 0.253 µM
  relative viability: 1.12
[13]; first compound 0.8 µM
  relative viability: 1.11
[13]; first compound 2.53 µM
  relative viability: 1.11
[14]; first compound 0.08 µM
  relative viability: 1.03
[14]; first compound 0.253 µM
  relative viability: 1.08
[14]; first compound 0.8 µM
  relative viability: 1.07
[14]; first compound 2.53 µM
  relative viability: 1.01
[15]; first compound 0.08 µM
  relative viability: 1.15
[15]; first compound 0.253 µM
  relative viability: 1.1
[15]; first compound 0.8 µM
  relative viability: 1.18
[15]; first compound 2.53 µM
  relative viability: 1.24
[16]; first compound 0.08 µM
  relative viability: 1.24
[16]; first compound 0.253 µM
  relative viability: 0.887
[16]; first compound 0.8 µM
  relative viability: 0.99
[16]; first compound 2.53 µM
  relative viability: 1.04
[17]; first compound 0.08 µM
  relative viability: 0.993
[17]; first compound 0.253 µM
  relative viability: 0.914
[17]; first compound 0.8 µM
  relative viability: 1.01
[17]; first compound 2.53 µM
  relative viability: 1.04
[18]; first compound 0.08 µM
  relative viability: 0.648
[18]; first compound 0.253 µM
  relative viability: 0.656
[18]; first compound 0.8 µM
  relative viability: 0.765
[18]; first compound 2.53 µM
  relative viability: 0.698
[19]; first compound 0.08 µM
  relative viability: 1.05
[19]; first compound 0.253 µM
  relative viability: 0.922
[19]; first compound 0.8 µM
  relative viability: 1.01
[19]; first compound 2.53 µM
  relative viability: 1.1
[20]; first compound 0.08 µM
  relative viability: 0.876
[20]; first compound 0.253 µM
  relative viability: 0.796
[20]; first compound 0.8 µM
  relative viability: 0.724
[20]; first compound 2.53 µM
  relative viability: 0.883
